Measured values as given in PMC5672024, “Selective Glucocorticoid Receptor Properties of GSK866 Analogs with Cysteine Reactive Warheads” (Frontiers in Immunology, 2017).

Columns and labels:
[1] = test system: TNF-induced NFκB reporter gene activity in L929sA cells; test: p(NFκB)3-50luc reporter gene assay with TNF (NFκB transrepression); type: cell-based; settings: TNF 2,500 IU/ml; for inhibition at 0.01 µM: L929sA, 10 nM compound
Description: (§1) In order to compare transactivation and transrepression potencies of the different synthesized GSK866 analogs, we performed GRE- and NFκB-luciferase-dependent reporter gene studies in stable transfected cell lines, as previously described ([3], [8]). HaCat cells expressing p(GRE)2 50-Luc and L929sA cells expressing p(GRE)250-Luc or p(NFκB)350-Luc were cultured in DMEM medium with 1% L-glutamine, supplemented with 10% feral bovine serum (FBS), 100 µg/ml streptomycin, and 100 IU/mL penicillin in a humidified 5% CO2 atmosphere. Cells were passaged every 2 days at a dilution of 1:6. Reporter gene cells were plated at a density of 0.5 × 10^5 cells/well in 24 well plates and grown overnight. p(GRE)250-Luc-dependent reporter gene cells were treated with solvent (DMSO) or compound (100 fM, 1 nM, 10 nM, 100 nM, and 1 µM) for 6 h, whereas in case of p(NFκB)350-Luc, TNF (2,500 IU/mL) was added 2 h following compound treatment. After incubation with the compounds, medium was removed and cells were washed twice with PBS followed by adding 100 µl of 1× lysis buffer (0.2 M K2HPO4, 0.2 M KH2PO4, Triton X-100, pH 7.6). 25 µl of lysate was assayed for luciferase activity by adding 50 µl of luciferase assay substrate (1 mM luciferin or luciferin salt, 3 mM ATP, and 15 mM MgSO4 in 30 mM HEPES buffer, pH 7.8) followed by 10 s mixing and measuring 1 s bioluminescence using an Envision multilabel reader (Perkin Elmer).
(§2) Figure 3 Selective glucocorticoid receptor agonist GSK866 analogs UAMC-1217, UAMC-1218 but not UAMC-1158 and UAMC-1159 elicit selective glucocorticoid receptor-transactivation and NFκB-transrepression properties. Glucocorticoid response element (GRE)- and NFκB-luciferase-dependent reporter gene assays were performed in L929sA and HaCat reporter cells which were stably transfected with, respectively, p(NFκB)3-50luc or p(GRE)2-50-luc constructs. For p(GRE)2-50-luc reporter assays, cells were solvent-treated or induced with different concentrations of Dex (A), Dex-mesylate (Dex-Mes) (A), SEGRA GSK866 (C) or analogs UAMC-1158 (D), UAMC-1159 (E), UAMC-1217 (F), and UAMC-1218 (G) as indicated for a total exposure time of 6 h, whereas cells were cotreated for TNF (2,500 IU/ml) in the last 4 h for p(NFkB)3-50luc reporter assays (B–G). Corresponding lysates were assayed for luciferase activities and normalized for protein content as described in the Section “Materials and Methods.” Promoter activities are expressed as relative induction factor (± standard deviation) i.e., the ratio of expression levels recorded either at induced and non-induced conditions, with the latter taken to be 1.

[2] = test system: GR; test: Cell-based GR ligand-binding competition assay with [3H]-dexamethasone; settings: from IC50 values of ligand displacement assays; ref [14]
[3] = test system: GR transactivation, p(GRE)2-50-luc reporter in HaCat cells; test: p(GRE)2-50-luc reporter gene assay (GR transactivation); type: cell-based; settings: 6 h, 10 nM
Description: as §1, §2

[4] = test system: GILZ/TSC22D3 mRNA; test: qPCR of GR target gene GILZ/TSC22D3 in HaCat cells; type: cell-based; settings: 6 h, 10, 100 or 1,000 nM, compared with Dex
Description: qPCR was performed using the GoTaq qPCR Master Mix (Promega) according to manufacturer’s instructions. In short, a 25 µl reaction volume mix per sample was prepared containing 12.5 µl GoTaq qPCR Master Mix, 0.4 µM forward and reverse primer, and nuclease-free water. We used the Rotor-Gene Q qPCR machine of Qiagen with following PCR program: 95°C for 2 min, 40 cycli denaturation (95°C, 15 s) and annealing/extension (60°C, 30 s), and dissociation (60–95°C). […] Each sample was run in triplicate. The median value of the triplicates were taken to calculate the deltaCt-values using GAPDH as the normalization gene.
(A) QPCR assays was performed against the GR target gene GILZ/TSC22D3 in HaCat cells treated for 6 h with different concentrations 10, 100 or 1,000 nM Dex or UAMC-1217. Bar graph plot represents the relative mRNA levels of GILZ/TSC22D3 upon Dex or UAMC-1217 treatment. (B) QPCR assays was performed against the TNF-inducible inflammatory gene interleukin-6 (IL6) in HaCat cells treated for 6 h with different concentrations 10, 100, or 1,000 nM Dex or UAMC-1217 either or not, cotreated for the last 4 h with TNF (2,500 IU/ml) as indicated in panel (B). […] Significant mean differences versus control setups panel (A) or TNF treated setup panel (B) are marked as *** (P < 0.001), **(P < 0.01), * (P < 0.05) and were determined by one-way ANOVA (Dunnetts Posttest).

[5] = test system: recombinant GR-LBD (hGR); test: Mass spectrometry of tryptic peptides of recombinant GR-LBD after ligand incubation (covalent binding); set-up: species or system human; settings: 2 h at 37°C, trypsin digestion, LC-MS/MS
Description: Recombinant His6-MBP-mCaspase3 site-LBD-hGR was expressed in the Escherichia coli strain BL21codon + pICA2 that was transformed with the corresponding pLHM36LBD-hGR plasmid and in which expression was induced by Isopropyl β-D-1-thiogalactopyranoside (IPTG) under control of a pL-promotor. The transformed bacteria were grown in Luria Bertani medium supplemented with ampicillin (100 µg/ml) and kanamycin (50 µg/ml) overnight at 28°C before 1/100 inoculation in 12 × 0.5 l provided with Luria Bertani medium supplemented with ampicillin (100 µg/ml) and 1% glycerol in a shaker incubator. The cells were grown to an optical density at AU 600 nm of 0.65, transferred to 20°C and expression was induced by addition of 1 mM IPTG overnight. Cells were then harvested and frozen at −20°C. […] After thawing, the cells were re-suspended at 3 ml/g in cold 20 mM Tris-HCl pH 7.4, 200 mM NaCl, 1 mM EDTA, 1 tablet complete protease inhibitor cocktail from Roche/50 ml, and 10 mM β-mercaptoethanol. The cytoplasmic fraction was prepared by sonication of the cells on ice and isolated by centrifugation at 18,000 × g for 30 min. All further purification steps were conducted at 4°C. The clear supernatant was applied to an amylase column (BioLabs, XK26 × 20, 100 ml), equilibrated with 20 mM Tris–HCl pH 7.4, 200 mM NaCl, 1 mM EDTA, and 10 mM β-mercaptoethanol. The column was eluted with 20 mM Tris–HCl pH 7.4, 200 mM NaCl, 1 mM EDTA, 10 mM maltose, and 10 mM β-mercaptoethanol. […] Recombinant purified His-MBP-DEVD-GR-LBD fusion protein was dissolved at a concentration of 1 mg in 1.7 ml PBS buffer.
Each aliquot was incubated 2 h at 37°C. […] 120 µl of each sample was loaded onto a spin column and the flow-through was collected (1,500 × g, 2 min). Trypsin (5 µl of 20 mM stock solution) was added, and the samples were incubated 20 h at 37°C. Then, 0.1% FA (formic acid) (41.5 µl) and 20 mM TCEP in 0.1% FA (18.5 µl, 5.7 mg TCEP/ml) were added [final volume = 185 µl, final concentration TCEP = 2 mM, 1 µg material/2.5 μl], and the samples were subjected to LC–MS/MS analysis.
The obtained peptide mixtures were introduced onto an LC–MS/MS system; the Ultimate 3000 RSLC nano (Dionex, Amsterdam, The Netherlands) in-line connected to an LTQ-Orbitrap Velos (Thermo Fisher Scientific, Bremen, Germany). The sample mixture was loaded on a trapping column [made in-house, 100 µm internal diameter (I.D.) × 20 mm, 5 µm C18 beads (Reprosil-HD, Dr. Maisch)]. After back flushing from the trapping column, the sample was loaded on a reverse-phase column [made in-house, 75 µm I.D. × 150 mm, 5 µm C18 beads (Reprosil-HD, Dr. Maisch)].
The mass spectrometer was operated in data-dependent mode, automatically switching between MS and MS/MS acquisition for the 10 most abundant peaks in a given MS spectrum. […]

| Compound | inhibition at 0.01 µM [1] [%] | fold lower GR-LBD affinity versus GSK866 [2] | GR transactivation in GRE-luc reporter at 10 nM [3] | NFκB transrepression in NFκB-luc reporter ([1]; dose range) | GILZ/TSC22D3 gene expression [4] | Modifications: GR-LBD cysteine-containing peptide covalently bound [5] | Modifications: GR-LBD cysteine-containing peptide covalently bound ([5]; listed as 1217) |
| --- | --- | --- | --- | --- | --- | --- | --- |
| C[C@@H]1C[C@H]2[C@@H]3CCC4=CC(=O)C=C[C@]4(C)[C@@]3(F)[C@@H](O)C[C@]2(C)[C@@]1(O)C(=O)CO [Dex, Dexamethasone, reference compound] | 40 to 45 |  |  |  |  |  |  |
| CCN(C[C@@](O)(CNC(=O)c1cnn(-c2ccc(F)cc2)c1N)C(F)(F)F)C(=O)c1c(Cl)ccc(NC(=O)CCl)c1Cl [UAMC-1217] | ~95 | approx. 5 fold | significantly reduced GR transactivation to levels below transactivation observed with 10 nM of Dex | dose-dependent NFκB-transrepression effects | reduced transactivation effects | Cys-622 | Peptide 615–633 → C622 |
